The source of these data is patent publication US11135163B2, “Peptide hydrogel properties and its applications” (Kansas State University Research Foundation, priority 2014, dated 2021).

The test system of data set [1] is female mice of FVB. Kind of data set: Immune response after subcutaneous injection of hydrogel in mice. The data set is classed as in vivo, mouse. As to the method:
Hydrogel: 1% h9e peptide was prepared in sodium bicarbonate solution, and 1% BSA was prepared in PBS solution as trigger solution. The h9e peptide solution and BSA solution was mixed at 1:1 volume ratio, and incubated at 37° C. for 30 min to prepare hydrogel with 0.5% h9e peptide concentration and 0.5% BSA with a gel strength of about 450 Pa.
Experiment: In trials #1 and #2, healthy female mice of FVB 6-15 week old were injected subcutaneously in the inguinal region with 100 or 200 uL of the hydrogel or control solutions in a blinded study. Weight and external body temperature were measured daily for up to 2 weeks.
Mammary fat pads from the inguinal region were removed at necropsy. Tissues were fixed with 10% formalin and processing for a 5 um thickness sectioning. Samples were stained with hematoxylin and eosin (H&E). Hydrogel trial 3 was completed in the same manner described above with the following exceptions. 200 uL of hydrogel or control solutions were injected subcutaneously on the back of the animal.
Microscope slide preparation: Samples of the control, and hydrogel treated tissues were submitted for histopath processing at Diagnostic Laboratory at KSU Veterinary School in Mosier Hall. Slides and paraffin blocks were labeled 1 as control and 4 as hydrogel treated, respectively. Adipose tissue samples were processed on the Sakua Tissue-Tek VIP 6, model #VIP6-A1. Then, the samples were then embedded using the Sakura Tissue-Tek Tissue Embedding Console System model #4710. For microscope slide preparation, the paraffin blocks were cut on a 1215 Leitz Rotary Microtome and sectioned at 5 microns. Sections were then mounted on a microscope slide from a water bath. H&E staining of the slides done on an automated stainer, Leica Autostainer XL, model #ST5060. Lastly, the stained slides are covered slipped by an automatic coverslippper, Leica CV5030.
Inflammatory analysis: The fixed tissues of animals without treatment, treated with PBS buffer and h9e hydrogel were further analyzed for inflammatory effects including VWF8 (blood vessel), Arginase I (wound healing macrophage), Fspl and α-smooth muscle actin (fibroblast), CCL2 (pro-inflammatory cytokine), and TGF-beta (immunosuppressive cytokine). 796 (FVB normal mammary gland) was used as negative control. Image J arbitrary unit was used to evaluate these tests using Image J software.

Data set [2] is described as follows: Hydrogel formation and gelation time sweep of h9e with commercial mouse blood. The note with it: all concentrations except 1%. The method, then:
About 150 μL of the appropriate wt % of peptide solution was added to 150 μL of commercial mouse blood in a small vial. The mixture was pipetted 5 times to ensure continuity and observed for visual hydrogel formation. Visual observation of hydrogel formation was recorded via a Nikon Coolpix L22 camera (FIG. 9).
Hydrogel gelation time sweep (instantaneous): A time sweep was conducted on the hydrogel and commercial mouse blood mixture. 150 μL of the appropriate wt % of peptide solution was added to 150 μL of commercial mouse blood in a small vial. The mixture was pipetted about 5 times to ensure continuity and added to the rheometer for evaluation. Both storage and loss moduli, G′ and G″ respectively, of the h9e/blood hydrogel were determined using a C-VOR 150 rheometer (Malvern Instruments, Malvern, Worcestershire, United Kingdom). A plate 20 mm in diameter was used with 1% strain and frequency of 1 Hz at a 37° C. temperature for 30 minutes.
Hydrogel stability gelation time sweep (24 hours post gelatinization): A time sweep was conducted on the hydrogel and commercial mouse blood mixture. 24 hours post gelation. […] Both storage and loss moduli, G′ and G″ respectively, of the h9e/blood hydrogel was determined using a C-VOR 150 rheometer (Malvern Instruments, Malvern, Worcestershire, United Kingdom). […]

A short description of data set [3]: Oxygen transmission rate (OTR) of hydrogel. The class given is physicochemical. As to the method: Hydrogel: 1% h9e peptide was prepared in sodium bicarbonate solution, and 1% BSA was prepared in PBS solution as trigger solution. The h9e peptide solution and BSA solution was mixed at 1:1 volume ratio, and incubated at 37 C for 30 min to prepare hydrogel with 0.5% h9e peptide concentration and 0.5% BSA with a gel strength of about 450 Pa.
Oxygen transmission rate (OTR): The OTR of hydrogels is another important property for in vitro tissue and organ regeneration process. Standard PGmatrix hydrogels was used in this experiment. OTR is the steady state rate at which oxygen gas permeates through a material at specified conditions of temperature and relative humidity. Values are expressed in cc/m2/24 hr in metric units determined by MOCON, Inc. (Minneapolis, […].) for OTR measurement using OX-TRAN instrument according to the standard method. Both challenge gas (oxygen) and sweeper gas (nitrogen) was held at relatively humidity of 100% to avoid gel drying, and temperature will be kept at ambient. 3.75 ml hydrogel was used and spread into thin film to cover the 5 cm^2-area. Experiments were duplicated twice.

The nature of data set [4]: Comparison of material properties of 3D cell culture hydrogels. The class given is physicochemical.

With “H-FLIVIGSIIGPGGDGPGGD-NH2 [h9e, FLIVIGSIIGPGGDGPGGD]”, the “inflammatory effects compared to controls” value in data set [1] (0.5% h9e/0.5% BSA hydrogel, subcutaneous, mice) was “No significant inflammatory effects”. The “histological images, hydrogel treated versus control” value in data set [1] (H&E staining) was “no significant difference”. Further, in data set [1] (trial 3, 200 uL subcutaneously on the back), the “absorption of hydrogel at necropsy” value is “complete absorption of hydrogel”. In addition, in data set [1] (up to 2 weeks), the “daily activity of treated animals” value is given as “same normal daily activity”. Also, the “viscosity, strength and stability 24 hours post gelation versus instantaneous” value in data set [2] was “increased”. Moreover, the OTR in data set [3] (0.5% h9e, 0.5% BSA hydrogel, 100% relative humidity, ambient temperature) is reported as 3,984 cc/m^2-day. The OT rate entry in data set [3] (h9e hydrogel at 0.5% peptide concentration) is reported as “about 3,984 cc/m^2 per day”. Further, the Porosity in data set [4] is on record as 50-200 nm.
